Measurements as given in US20100048605A1, “SYNERGISTIC EFFECTS OF COMBINATIONS OF N[…] OPIOIDS FOR THE TREATMENT OF PAIN” (University of Kentucky Research Foundation, priority 2006, published 2010).

Columns and labels:
[1] = test system: rodent model of nociceptive pain (tail-flick test); experiment: Tail-flick test after intraperitoneal (IP) administration; assay type: in vivo, Sprague Dawley male rats; details: rat
Method: Sprague Dawley (about 90 days old, 350 g; Harlem, IN) male rats were used. S(−)-nornicotine fumarate (2.57 mg/kg), R(+)-nornicotine fumarate (2.57 mg/kg) and morphine sulfate (3 mg/kg) were dissolved in saline and injected intraperitonealy (IP, 1 ml/kg). Each rat received three treatments: either S(−)-nornicotine alone, morphine alone and S(−)-nornicotine followed by morphine or R(+)-nornicotine alone, morphine alone and R(+)-nornicotine followed by morphine. Injections were made in randomized fashion at 48 hour intervals. The responses to acute thermal stimuli were determined using the tail-flick test [D'Amour F. E., Smith D. L. “A method for determining loss of pain sensation” J Pharmacol Exp Ther (1941), 72:74-79]. Tail-flick latency (TFL) was measured by recording the time from the onset of the heat stimulus to the tail to withdrawal of the tail from the heat source, using a standard tail-flick apparatus (IITC, Life Science). The sensitivity of the instrument was adjusted to provide a baseline about 2 seconds. Cut-off time of 10 seconds was used to avoid tail damage. TFL were determined prior to (twice, about 15 minutes apart) and at […] after administration. Data were normalized for pre-injection baseline. Areas under the curve (AUC0-180min) were calculated for normalized data by trapezoidal rule. […]

[2] = test system: rodent model of nociceptive pain (tail-flick test); experiment: Tail-flick test after intrathecal (IT) administration; assay type: in vivo, Sprague Dawley male rats; details: rat
Method: Chronic catheterization of the spinal subarachnoid space was performed in Sprague Dawley male rats (about 90 days old, 350 g; Harlem, IN) according to minor modification of the method described by [Yaksh T and Rudy T. “Chronic catheterization of the spinal subarachnoid space” Physiol Behav (1976) 17:1031-1036]. Briefly, a 21 cm long P-10 polyethylene tubing (volume 10 mcl) which extended 8.5 cm beyond an incision in the atlanto-occipital membrane was inserted and secured to the scull with acrylic cement. The catheter rested in the vicinity of T-12 at the rostral face of the lumbar cord enlargement. The study was initiated 7 days after IT catheterization.
S(−)-nornicotine perchlorate (10 mcg), R(+)-nornicotine perchlorate (10 mcg) and morphine sulfate (0.5 mcg) were dissolved in saline and administered by the intrathecal (IT) route (10 mcl). Groups of rats was treated with S(−)-nornicotine alone and in combination with morphine, […] alone and in combination with morphine, morphine alone, and saline (10 mcl). The responses to acute thermal stimuli were determined using the tail-flick test (a baseline equal to about 2-3 seconds, cut-off time of 10 seconds). […] Data are presented as time courses of the TFL (normalized for baseline) and areas under the curve (AUC0-180min). All data are mean±SEM (n=4-6 rats). Doses refer to salts.

[3] = following peripheral administration of nicotine; cited from earlier work
[4] = humans; cited from earlier work
[5] = following repeated nicotine dosing; cited from earlier work
[6] = compared with nicotine; cited from earlier work

Compound | analgesia of S(−)-nornicotine alone (tail-flick latency, AUC0-180min) ([1]; S(−)-nornicotine fumarate 2.57 mg/kg alone) | effect on the analgesic effect of morphine (tail-flick latency, AUC0-180min) ([1]; S(−)-nornicotine fumarate 2.57 mg/kg followed by morphine sulfate 3 mg/kg) | analgesia of S(−)-nornicotine alone (tail-flick latency, AUC0-180min) ([2]; S(−)-nornicotine perchlorate 10 mcg alone) | effect on the analgesic effect of morphine (tail-flick latency, AUC0-180min) ([2]; S(−)-nornicotine perchlorate 10 mcg with morphine sulfate 0.5 mcg) | residence in the rat's brain [3] [min] | plasma half-life [4] [h] | residence in the rat's brain relative to nicotine [3] | accumulation in the brain compared to nicotine [5] | bioavailability (in words) [6]
c1cncc([C@@H]2CCCN2)c1 [S(−)-nornicotine] | did not produce analgesia | significantly enhanced | did not produce analgesia | significantly enhanced | – | – | – | – | –
CN1CCCC1c1cccnc1 (stereo not shown) [nicotine, reference compound] | – | – | – | – | 52 | – | – | – | –
c1cncc([C@@H]2CCCN2)c1 [nornicotine] | – | – | – | – | 166 | 8 | about 3 times | about 4 fold | superior
